One assay deals with T1, PKCδ-C1B (Mus musculus, UniProt P28867).
T1 construct: made in house
Kind of assay: PKCδ-C1B assay. In kind it is binding. On the procedure: Phosphatidyl serine vesicles are prepared by the addition of phosphatidyl serine (10 mg/mL in chloroform, 0.4 mL) to a glass test tube followed by removal of the chloroform under a stream of nitrogen (5 min). […] The resulting solution is stored over ice. […] Stock solutions of compounds are diluted with absolute ethanol in glass in serial fashion. […] The tubes are incubated at 37° C. for 90 min. and then put on ice for 5 min. Each tube is then filtered separately through a pre-soaked filter disc. […] The filter is subsequently rinsed with cold 20 mM TRIS buffer (5 mL) dropwise. […] The filters are immediately counted in a scintillation counter (Beckman LS 6000SC). Counts per minute are averaged among three trials at each concentration.

In a further assay the test system is P388 cell line. The assay can be described thus: P388 murine lymphocytic leukemia cell assay. The class given is cell-based. The settings on record: Mus musculus, P388, 120 h; 5 days incubation, MTT; read-out: P388 Assay ED50. On the procedure: Cells from a P388 cell line (CellGate, Inc., Sunnyvale, Calif.) are grown in RPMI 1640 cell medium containing fetal calf serum (10%), L-glutamine, penicillin, streptomycin and are split twice weekly. All compounds are first diluted with DMSO. Later serial dilutions are done with a phosphate buffer solution (HYQ DPBS modified phosphate buffered saline). All dilutions are done in glass vials and the final DMSO concentration is always below 0.5% by volume. Final two-fold dilutions are done in a 96 well plate using cell media so that each well contains 50 μL. All compounds are assayed in quadruplicate over 12 concentrations. Cell concentration is measured using a hemacytometer and the final cell concentration is adjusted to 1×10^4 cells/mL with cell medium. The resulting solution of cells (50 μL) is then added to each well and the plates are incubated for 5 days in a 37° C., 5% CO2, humidified incubator (Sanyo CO2 incubator). MTT solution (3-[4,5-dimethylthiazol-2-yl]-2,5-diphenyltetrazolium bromide, 10 μL) is then added to each well and the plates are re-incubated under identical conditions for 2 h. To each well is then added acidified isopropanol (150 μL of i-PrOH solution containing 0.05 N HCl) and mixed thoroughly. The plates are then scanned at 595 nm and the absorbances are read (Wallac Victor 1420 Multilabel Counter). The resulting data is then analyzed to determine an ED50 value using the Prism software package (GraphPad).

Assay [1] has as its target PKC purified from rat brain (mixture of PKC isoenzymes). The assay can be described thus: Protein kinase C (isozyme mix) assay. In kind it is binding. The settings on record: determined under identical conditions to the PKC isozyme mix assay; read-out: Kd of [H^3]-PDBu. On the procedure: In one approach, anticancer activity of compounds of the invention can be assessed using the protein kinase C assay detailed in Example 5. In this assay, Ki values are determined for analogues based on competition with radiolabeled phorbol 12,13-dibutyrate for binding to a mixture of PKC isoenzymes. PKC enzymes are implicated in a variety of cellular responses which may be involved in the activity of the bryostatins.
The following procedure was used, based on a modification of a previous procedure described by Tanaka et al. (1986). Filters (Whatman GF-B, 21 mm diam.) are soaked for 1 h in a solution containing deionized water (97 mL), and 10% polyethyleneamine (3 mL). A filtering buffer solution containing TRIS (1M, pH 7.4, 10 mL) and water (490 mL) is prepared and cooled on ice. […] Non-specific binding is measured in 1–3 tubes by the substitution of phorbol myristate acetate (PMA) (1 mM, 5 μL) and EtOH (15 μL) for the analogue/EtOH combination. […] The filters are immediately counted in a scintillation counter (Beckman LS 6000SC). […] The data is then plotted using a least squares fit algorithm with the Macintosh version of Kaleidagraph© (Abelbeck Software) and an IC50 (defined as the concentration of analogue required to displace half of the specific PDBU binding to PKC) is calculated. […]

Each structure is given as a SMILES string. Read-outs that look alike come from different tables or passages of the source.

The record followed here is patent publication US7256286B2, “Bryostatin analogues, synthetic methods and uses” (The Board of Trustees of the Leland Stanford Junior …, priority 1999, dated 2007).

T1 sequence (P28867 231-281 limits assumed): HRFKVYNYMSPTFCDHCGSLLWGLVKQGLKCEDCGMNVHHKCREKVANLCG

Broadly, the Ki is the dissociation constant of the complex between target and ligand, obtained from inhibition or displacement. Take `COC(=O)/C=C1\C[C@H]2C[C@H]([C@@H](C)O)OC(=O)C[C@H](O)C[C@@H]3CCC[C@H](C[C@@H]4CCO[C@H](/C=C/C(C)(C)[C@](O)(O2)C1OC(C)=O)O4)O3` (stereo partly drawn) [Formula 702.2]: the Ki at PKCδ-C1B (competition with tritiated phorbol 12,13-dibutyrate, read-out: PKCδ-C1B Assay Ki) amounted to 232 ± 11 nM. Moreover, the EC50 in the assay with P388 cell line is 181 nM.
Turning to `CCCCCCCC(=O)O[C@H]1/C(=C/C(=O)OC)CC2C[C@H]([C@@H](C)O)OC(=O)C[C@H](O)C[C@@H]3CCC[C@H](C[C@@H]4CCO[C@H](/C=C/C(C)(C)[C@]1(O)O2)O4)O3` [Formula 1998a, reference compound], affinity on PKCδ-C1B was put at a Ki of 5.1 nM. For the same compound, the EC50 in the assay on P388 cell line came to 76 nM.
In general, Kd refers to the free concentration of one partner at which half of the binding sites on the other are occupied at equilibrium, for simple one-to-one binding. Turning to `CCCC(=O)O[C@@H]1[C@@H](C)[C@@]2(O)[C@@H](C=C(CO)C[C@]3(O)C(=O)C(C)=C[C@@H]23)[C@@H]2C(C)(C)[C@]12OC(=O)CCC` [Phorbol dibutyrate, phorbol 12,13-dibutyrate, reference compound], the values for the Kd (on PKCδ-C1B (Kd value printed in the Ki column); in assay [1]) were 1.7 nM and 1.55 nM, respectively.
